Measured values: EP2548876A1, “New CRTh2 antagonists” (Almirall, S.A., priority 2011, dated 2013)

Target: T1, CRTh2 receptor (Homo sapiens, UniProt Q9Y5Y4)
T1 construct: expressed in transfected cells; host or cells: CHO.K1 cells (membranes)
T1 sequence (Q9Y5Y4 1-395): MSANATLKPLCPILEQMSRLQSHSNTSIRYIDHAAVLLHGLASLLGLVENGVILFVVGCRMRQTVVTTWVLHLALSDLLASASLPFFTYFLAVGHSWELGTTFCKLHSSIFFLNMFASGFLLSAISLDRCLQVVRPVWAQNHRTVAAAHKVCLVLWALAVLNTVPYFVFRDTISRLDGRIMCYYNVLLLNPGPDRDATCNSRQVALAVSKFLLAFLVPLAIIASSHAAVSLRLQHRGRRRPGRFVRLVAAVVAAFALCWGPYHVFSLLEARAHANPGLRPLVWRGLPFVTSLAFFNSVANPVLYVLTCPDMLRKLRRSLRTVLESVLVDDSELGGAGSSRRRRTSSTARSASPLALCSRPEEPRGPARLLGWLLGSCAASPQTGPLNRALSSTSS
Assay: CRTh2 GTPγS antagonism binding assay
Type: biochemical
Conditions: membranes from CHO.K1 cells stably overexpressing the CRTh2 receptor; PGD2 at 50 nM (EC80); 0.1 nM [35S]-GTPγS; 1 h pre-incubation with compound, then 2 h at room temperature; read-out: GTPγ Binding
Procedure: CRTh2 GTPγS antagonism binding assay
The assay is performed using membranes obtained from CHO.K1 cells stably overexpressing the CRTh2 receptor and [^35S]-GTPγS as radioligand. Assay is performed pre-incubating 4-8 µg of membranes per well with the compound to be tested for 1 h, followed by incubation with PGD2 at 50 nM (EC80), 0.1 nM [^35S]-GTPγS in incubation buffer (20 mM HEPES, 10 mM MgCl2, 100 mM NaCl, 10 µM GDP, 10 µg/ml Saponine and 0.2% BSA) for 2 h at room temperature. The reaction is terminated by filtering in GF/C plates pre-treated with 20 mM HEPES, 10 mM MgCl2, 100 mM NaCl and washing 6 times with wash buffer (20 mM NaH2PO4, 20 mM Na2HPO4). After washing, plates are dried and scintillation buffer Optiphase added. The radioactivity retained in the filter is counted using a Microbeta liquid scintillation counter. Compound IC50 are determined using Excel XL-fit for calculations.

Structure (SMILES): CCN(Cc1cc(C(F)(F)F)ccc1-c1cn(CC(=O)O)c2cccnc12)C(=O)C1CC1 [Example 1, {3-[2-{[(Cyclopropylcarbonyl)(ethyl)amino]methyl}-4-(trifluoromethyl)phenyl]-1H-pyrrolo[3,2-b]pyridin-1-yl}acetic acid]
- IC50: 0.015 µM

Structure (SMILES): CCN(Cc1ccccc1-n1cc(CC(=O)O)c2ccc(C)nc21)C(=O)C1CC1 [Example 17, [1-(2-{[(Cyclopropylcarbonyl)(ethyl)amino]methyl}phenyl)-6-methyl-1H-pyrrolo[2,3-b]pyridin-3-yl]acetic acid]
- IC50: 0.005 µM

Structure (SMILES): CCN(Cc1cc(C(F)(F)F)ccc1-c1cn(CC(=O)O)c2ccc(C)nc12)C(=O)C1CC1 [Example 3, {3-[2-{[(Cyclopropylcarbonyl)(ethyl)amino]methyl}-4-(trifluoromethyl)phenyl]-5-methyl-1H-pyrrolo[3,2-b]pyridin-1-yl}acetic acid]
- IC50: 0.016 µM

Structure (SMILES): CCN(Cc1cc(F)ccc1-c1cn(CC(=O)O)c2ccc(C(F)(F)F)nc12)C(=O)C1CC1 [Example 7, [3-(2-{[(Cyclopropylcarbonyl)(ethyl)amino]methyl}-4-fluorophenyl)-5-(trifluoromethyl)-1H-pyrrolo[3,2-b]pyridin-1-yl]acetic acid]
- IC50: 0.011 µM

Structure (SMILES): Cc1ccc2c(n1)c(-c1ccc(C(F)(F)F)cc1CN(Cc1ccccc1)C(=O)C1CC1)cn2CC(=O)O [Example 9, {3-[2-{[Benzyl(cyclopropylcarbonyl)amino]methyl}-4-(trifluoromethyl)phenyl]-5-methyl-1H-pyrrolo[3,2-b]pyridin-1-yl}acetic acid]
- IC50: 0.014 µM

Structure (SMILES): CCN(Cc1cc(C(F)(F)F)ccc1-n1cc(CC(=O)O)c2cccnc21)C(=O)C1CC1 [Example 12, {1-[2-{[(Cyclopropylcarbonyl)(ethyl)amino]methyl}-4-(trifluoromethyl)phenyl]-1H-pyrrolo[2,3-b]pyridin-3-yl}acetic acid]
- IC50: 0.009 µM

Structure (SMILES): CCN(Cc1cc(C(F)(F)F)ccc1-c1cc(CC(=O)O)c2ccncn12)C(=O)C1CC1 [Example 26, {7-[2-{[(Cyclopropylcarbonyl)(ethyl)amino]methyl}-4-(trifluoromethyl)phenyl]pyrrolo[1,2-c]pyrimidin-5-yl}acetic acid]
- IC50: 0.032 µM

Structure (SMILES): CCN(Cc1cc(C(F)(F)F)ccc1-c1cc(CC(=O)O)n2ccc(C)nc12)C(=O)C1CC1 [Example 23, {8-[2-{[(Cyclopropylcarbonyl)(ethyl)amino]methyl}-4-(trifluoromethyl)phenyl]-2-methylpyrrolo[1,2-a]pyrimidin-6-yl}acetic acid]
- IC50: 0.007 µM

Structure (SMILES): CCN(Cc1cc(C(F)(F)F)ccc1-c1cc(CC(=O)O)n2ccc(C(F)(F)F)nc12)C(=O)C1CC1 [Example 22, [8-[2-{[(Cyclopropylcarbonyl)(ethyl)amino]methyl}-4-(trifluoromethyl)phenyl]-2-(trifluoromethyl)pyrrolo[1,2-a]pyrimidin-6-yl]acetic acid]
- IC50: 0.006 µM

Structure (SMILES): CCN(Cc1cc(C(F)(F)F)ccc1-c1cn(C(C)C(=O)O)c2ccc(C)nc12)C(=O)C1CC1 (stereo not drawn) [Example 6, 2-{3-[2-{[(Cyclopropylcarbonyl)(ethyl)amino]methyl}-4-(trifluoromethyl)phenyl]-5-methyl-1H-pyrrolo[3,2-b]pyridin-1-yl}propanoic acid]
- IC50: 0.018 µM

Structure (SMILES): CCN(Cc1cc(F)ccc1-n1cc(CC(=O)O)c2cccnc21)C(=O)C1CC1 [Example 13, [1-(2-{[(Cyclopropylcarbonyl)(ethyl)amino]methyl}-4-fluorophenyl)-1H-pyrrolo[2,3-b]pyridin-3-yl]acetic acid]
- IC50: 0.017 µM

Structure (SMILES): CCN(Cc1cc(F)ccc1-n1cc(CC(=O)O)c2ccc(C)nc21)C(=O)C1CC1 [Example 16, [1-(2-{[(Cyclopropylcarbonyl)(ethyl)amino]methyl}-4-fluorophenyl)-6-methyl-1H-pyrrolo[2,3-b]pyridin-3-yl]acetic acid]
- IC50: 0.005 µM

Structure (SMILES): CCN(Cc1cc(F)ccc1-c1cn(CC(=O)O)c2cccnc12)C(=O)C1CC1 [Example 2, [3-(2-{[(Cyclopropylcarbonyl)(ethyl)amino]methyl}-4-fluorophenyl)-1H-pyrrolo[3,2-b]pyridin-1-yl]acetic acid]
- IC50: 0.01 µM

Structure (SMILES): CCN(Cc1cc(C(F)(F)F)ccc1-c1cc(CC(=O)O)n2cccnc12)C(=O)C1CC1 [Example 20, {8-[2-{[(Cyclopropylcarbonyl)(ethyl)amino]methyl}-4-(trifluoromethyl)phenyl]pyrrolo[1,2-a]pyrimidin-6-yl}acetic acid]
- IC50: 0.013 µM

Structure (SMILES): CCN(Cc1cc(F)ccc1-c1cc(CC(=O)O)n2cccnc12)C(=O)C1CC1 [Example 21, [8-(2-{[(Cyclopropylcarbonyl)(ethyl)amino]methyl}-4-fluorophenyl)pyrrolo[1,2-a]pyrimidin-6-yl]acetic acid]
- IC50: 0.02 µM
